From patent US20260276624A1, “PROPHYLACTIC OR THERAPEUTIC AGAINST EXACERBATION OR RECURRENCE OF CANCER, AND SCREENING METHOD THEREFOR” (KEIO UNIVERSITY, priority 2022, published 2026)

Tests used:
[1] = test system: COL17A1 KO human colorectal cancer organoids; assay: YAP signaling inhibitor on COL17A1 KO organoids, proportion of LGR5-positive p27-positive cells; format: cell-based; conditions: 20 μM, 2 days
Protocol: A YAP signaling inhibitor was allowed to act on COL17A1 KO organoids to study an effect on dormancy of cancer stem cells. As a YAP signaling inhibitor, MYF-01-37 (CAS No. 2416417-65-5), a low-molecular-weight TEAD inhibitor (TEADi) that disrupts YAP/TAZ-TEAD protein-protein interactions, was used (20 μM, 2 days). […] The scale bar is 100 μm. The right side of FIG. 11 is a graph showing results of measuring the proportion of LGR5-positive p27-positive cells based on the photographs on the left side of FIG. 11.

[2] = test system: Human colorectal cancer organoids (CCO32 strain); assay: Experimental Example 14: organoid xenograft, TEAD inhibitor after irinotecan; format: in vivo, NOG mice
Protocol: The upper row in FIG. 18 is a schematic view showing a schedule of this experiment. Human colorectal cancer organoids (CCO32 strain) were xenotransplanted into the subcutis of immunodeficient NOG mice. Thereafter, irinotecan was administered once a week for three times, followed by administering a TEAD inhibitor over a long period of time to inhibit YAP signaling. Thereafter, administration of the TEAD inhibitor was discontinued. As a TEAD inhibitor, MYF-01-37 (CAS No. 2416417-65-5) was used.
The lower row in FIG. 18 is a group showing change in tumor size in mice of each group over time. In the lower row in FIG. 18, “Vehicle” indicates a result of a group into which only a solvent was administered, “TEADi” indicates a result of a group into which only a TEAD inhibitor was administered, “IRI” indicates a result of a group into which only irinotecan was administered, and “IRI+TEADi” indicates a result of a group into which irinotecan and a TEAD inhibitor were administered.

[3] = test system: human colorectal cancer organoids (CCO32 strain); assay: Camptothecin treatment with or without FAK inhibitor, proportion of LGR5-positive p27-positive cells; format: cell-based; conditions: co-treatment with camptothecin; FAK inhibitor 10 nM, 24 hours / 10 μm as printed; camptothecin 5 days
Protocol: The scale bar is 100 μm. As a FAK inhibitor, PF573228 (CAS No. 869288-64-2) was used (10 μm). In FIG. 13, “FAKi” indicates a FAK inhibitor. FIG. 14 is a graph showing results of measuring the proportion of the LGR5-positive p27-positive cells when the human colorectal cancer organoids are treated or not treated with camptothecin for 5 days in the presence or absence of a FAK inhibitor. In FIG. 14, “N.S.” indicates no significant difference.

[4] = test system: human colorectal cancer organoids; assay: Colony formation of sorted cells after camptothecin treatment of organoids; format: cell-based; conditions: 50 nM; 1,000 sorted cells cultured; day 13 after sorting
Protocol: The human colorectal cancer organoids were treated with camptothecin (CPT) which is a topoisomerase inhibitor (50 nM). Subsequently, the LGR5-positive p27-positive cells, the LGR5-positive p27-negative cells, LGR5-negative p27-positive cells, and LGR5-negative p27-negative cells were sorted and collected with a cell sorter, and 1,000 cells of each type were cultured.
The numerical values in FIG. 4 show the number of colonies (average value±standard error). The scale bar is 1 mm.

[5] = test system: COL17A1 KO human colorectal cancer organoids; assay: Chemotherapy sensitivity of COL17A1 KO organoids; format: cell-based; conditions: compared to COL17A1 WT and hetero KO organoids
Excerpt: The chemotherapy sensitivity of COL17A1 KO human colorectal cancer organoids was studied.

YAP signaling = assay: Nuclear translocation of YAP in camptothecin-treated organoids (confocal); format: cell-based, human; conditions: CCO7 and CCO32 strains, camptothecin treatment
Excerpt: The scale bar is 100 μm. The right side of FIG. 10 is a graph showing results of measuring the proportion of cells containing YAP that has undergone nuclear translocation based on the photographs on the left side of FIG. 10.

COL17A1, pFAK = assay: Capillary-based immunoassay for COL17A1, pFAK and total FAK in camptothecin-treated organoids; format: cell-based, human; conditions: camptothecin 50 nM; CCO7 and CCO32 strains
[6] = test system: human colorectal cancer organoids xenotransplanted in mice; assay: In vivo imaging of survival of LGR5-positive cells after irinotecan
Protocol: Whether or not the LGR5-positive p27-positive cells resistant to the chemotherapeutic agent contribute to relapse or recurrence of tumors after chemotherapy was studied in vivo. Specifically, irinotecan was administered to mice xenotransplanted with human colorectal cancer organoids, followed by in vivo imaging and genetic lineage-tracing of the LGR5-positive p27-positive cells and the LGR5-positive p27-negative cells over time.
FIG. 5 is a graph showing results obtained by measuring the survival rate of LGR5-positive p27-positive cells and LGR5-positive p27-negative cells after administration of irinotecan.

[7] = test system: COL17A1 KO human colorectal cancer organoids xenotransplanted in mice; assay: Tumor size after irinotecan in COL17A1 KO xenografts; format: in vivo; conditions: COL17A1 KO vs COL17A1 WT xenografts
Protocol: Subsequently, irinotecan was administered to mice xenotransplanted with COL17A1 KO human colorectal cancer organoids, and the tumor size was measured over time. The upper row in FIG. 8 is a schematic view showing a schedule of this experiment. The lower row in FIG. 8 is a graph showing change in tumor size over time. […] In addition, indicates a significant difference at p<0.05.

[8] = test system: Doxycycline-inducible YAP/TAZ-knockdown human colorectal cancer organoids; assay: Experimental Example 12: doxycycline-inducible YAP/TAZ-knockdown organoid xenograft, irinotecan; format: in vivo, NOG mice; conditions: irinotecan only
Protocol: The upper row in FIG. 15 is a schematic view showing a schedule of this experiment. Doxycycline-inducible YAP/TAZ-knockdown human colorectal cancer organoids were produced and xenotransplanted into the subcutis of immunodeficient NOG mice. Thereafter, irinotecan was administered. […] The scale bar is 100 μm. In the lower row in FIG. 15, “Control” indicates a result of a group into which neither irinotecan nor doxycycline has been administered, “Dox” indicates a result of a group into which only doxycycline was administered, “Irinotecan” indicates a result of a group into which only irinotecan was administered, and “Irinotecan +Dox” indicates a result of a group into which irinotecan and doxycycline were administered. FIG. 16 is a group showing change in tumor size in mice of each group over time. As a result, in FIG. 16, “Control,” “Dox,” “Irinotecan,” and “Irinotecan +Dox” show the same meaning as in the lower row in FIG. 15. In addition, “*” indicates a significant difference at p<0.05.

[9] = test system: Doxycycline-inducible YAP/TAZ-knockdown human colorectal cancer organoids; assay: Experimental Example 13: YAP/TAZ-knockdown organoid xenograft, doxycycline after irinotecan; format: in vivo, NOG mice; conditions: irinotecan once a week for three times, no doxycycline
Protocol: How the inhibition of YAP signaling affects tumor regrowth after chemotherapy was studied. The upper row in FIG. 17 is a schematic view showing a schedule of this experiment. Doxycycline-inducible YAP/TAZ-knockdown human colorectal cancer organoids were produced and xenotransplanted into the subcutis of immunodeficient NOG mice. Thereafter, irinotecan was administered once a week for three times, followed by administering doxycycline over a long period of time to inhibit YAP signaling. Thereafter, administration of doxycycline was discontinued. The lower row in FIG. 17 is a group showing change in tumor size in mice of each group over time. In the lower row in FIG. 17, “Irinotecan” indicates a result of the group into which only irinotecan was administered, and “Irinotecan +Dox” indicates a result of the group into which irinotecan and doxycycline were administered.

[10] = irinotecan only, no TEAD inhibitor

Structure (SMILES): C=CC(=O)N1CCC(C)(Nc2cccc(C(F)(F)F)c2)C1 (stereo not shown) [MYF-01-37]
- p27-positive cells in COL17A1 KO organoids [1]: led to reappearance of p27-positive cells
- tumor size ([2]; TEAD inhibitor after irinotecan (once a week for three times)): tumor size was reduced to a minimum
- tumor inhibition effect ([2]; TEAD inhibitor alone): did not show any tumor inhibition effect

Structure (SMILES): CS(=O)(=O)c1cccc(CNc2nc(Nc3ccc4c(c3)CCC(=O)N4)ncc2C(F)(F)F)c1 [PF573228]
- cell cycle reentry of LGR5-positive p27-positive cells after camptothecin exposure [3]: inhibited cell cycle reentry

Structure (SMILES): CC[C@@]1(O)C(=O)OCc2c1cc1n(c2=O)Cc2cc3ccccc3nc2-1 [camptothecin]
- colony formation of LGR5-positive p27-negative cells after camptothecin treatment [4]: showed no colony formation
- colony formation of LGR5-positive p27-positive cells after camptothecin treatment [4]: showed colony formation
- sensitivity of COL17A1 KO organoids to camptothecin [5]: more sensitive
- YAP signaling (nuclear translocation of YAP) in LGR5-positive p27-positive cells (YAP signaling): activates YAP signaling
- expression of COL17A1 (COL17A1, pFAK): expression of COL17A1 was deleted
- phosphorylation of FAK (COL17A1, pFAK): phosphorylation of FAK occurred

Structure (SMILES): CCc1c2c(nc3ccc(OC(=O)N4CCC(N5CCCCC5)CC4)cc13)-c1cc3c(c(=O)n1C2)COC(=O)[C@]3(O)CC [irinotecan]
- survival of LGR5-positive p27-negative cells after administration of irinotecan [6]: disappeared during an observation period
- survival of LGR5-positive p27-positive cells after administration of irinotecan [6]: tolerated chemotherapy and remained
- tumor regeneration after administration of irinotecan [7]: more inhibited in COL17A1 KO xenografts than in COL17A1 WT xenografts
- therapeutic effect (tumor size over time) [8]: transient
- nuclear translocation of YAP in graft ([8]; three days from administration, immunostaining): resulted in nuclear translocation of YAP in vivo
- therapeutic effect (tumor size over time) [9]: transient therapeutic effect
- time of cancer regrowth [9]: ~40 days
- therapeutic effect (tumor size over time) [2, 10]: transient therapeutic effect
- time of cancer regrowth [2, 10]: ~40 days
